Assay in all cases: Paddy pot test of herbicidal effect, water surface application of wettable powder
Holding throughout (type): in vivo
Conditions in all cases: applied onto water surface 3 days after sowing, examined after 30 days

Assay [1] deals with Echinochloa oryzicola Vasing. Here is the method: (§1) A paddy field soil was filled in a plastic pot having an area of 1/5000 are. Beginning of irrigation, fertilizer application and puddling were conducted. Then, seeds of Echinochloa oryzicola Vasing, Monochoria vaginalis Presl var. plan-taginea (Roxb.) Solms-Lau. and Scirpus juncoides Roxb. were sowed at a depth of 0.5 cm, and submerging was conducted so as to give a water depth of 4 cm. 3 days after the sowing, the wettable powder prepared as in the formulation 1 was diluted with water and dropwise added onto the water surface so that the active ingredient amount (g/10 are) added became the level shown in Table 2. Then, breeding was made at room temperature and, after 30 days, herbicidal effect was examined according to the yardstick shown in Table 1.

For assay [2], the system named is Monochoria vaginalis Presl var. plan-taginea (Roxb.) Solms-Lau. Here is the method: as §1
Assay [3] relates to Scirpus juncoides Roxb. Here is the method: as §1

Regarding `COCc1cccc([C@@H](O)c2nc(OC)cc(OC)n2)c1NS(=O)(=O)C(F)F` [compound 1, (R)-2′-(4,6-dimethoxypyrimidin-2-yl)hydroxymethyl-6′-methoxymethyl-1,1-difluoromethanesulfonanilide], the “Herbicidal effect (degree of growth control) index, Echinochloa oryzicola” value is reported as 1 (Herbicidal effect of 10% inclusive to 20% exclusive) in assay [1] (dose 0.04 g ai/10 a), 6 (Herbicidal effect of 60% inclusive to 70% exclusive) in assay [1] (dose 0.08 g ai/10 a), 9 (Herbicidal effect of 90 inclusive to 100% exclusive) in assay [1] (dose 0.16 g ai/10 a) and 9 (Herbicidal effect of 90 inclusive to 100% exclusive) in assay [1] (dose 0.32 g ai/10 a). Besides, the “Herbicidal effect (degree of growth control) index, Monochoria vaginalis” value in assay [2] (dose 0.04 g ai/10 a) is given as 0 (Herbicidal effect of less than 10%); in assay [2] (dose 0.08 g ai/10 a) it was 9 (Herbicidal effect of 90 inclusive to 100% exclusive); in assay [2] (dose 0.16 g ai/10 a) it was 10 (Herbicidal effect of 100% control); in assay [2] (dose 0.32 g ai/10 a), 10 (Herbicidal effect of 100% control). Also, the “Herbicidal effect (degree of growth control) index, Scirpus juncoides” value in assay [3] (dose 0.04 g ai/10 a) was 7 (Herbicidal effect of 70% inclusive to 80% exclusive); in assay [3] (dose 0.08 g ai/10 a) it was 9 (Herbicidal effect of 90 inclusive to 100% exclusive); in assay [3] (dose 0.16 g ai/10 a), 10 (Herbicidal effect of 100% control); in assay [3] (dose 0.32 g ai/10 a) it was 10 (Herbicidal effect of 100% control).

In the case of `COCc1cccc([C@H](O)c2nc(OC)cc(OC)n2)c1NS(=O)(=O)C(F)F` [compound 3, (S)-2′-(4,6-dimethoxypyrimidin-2-yl)hydroxyl-methyl-6′-methoxymethyl-1,1-difluoromethanesulfonanilide], the “Herbicidal effect (degree of growth control) index, Echinochloa oryzicola” value in assay [1] (dose 0.32 g ai/10 a) is given as 0 (Herbicidal effect of less than 10%). The “Herbicidal effect (degree of growth control) index, Monochoria vaginalis” value in assay [2] (dose 0.32 g ai/10 a) is recorded as 0 (Herbicidal effect of less than 10%). In addition, the “Herbicidal effect (degree of growth control) index, Scirpus juncoides” value in assay [3] (dose 0.32 g ai/10 a) is recorded as 0 (Herbicidal effect of less than 10%).

For `COCc1cccc(C(O)c2nc(OC)cc(OC)n2)c1NS(=O)(=O)C(F)F` (racemic) [compound 2, (RS)-2′-(4,6-dimethoxypyrimidin-2-yl)hydroxymethyl-6′-methoxymethyl-1,1-difluoromethanesulfonanilide, reference compound], the “Herbicidal effect (degree of growth control) index, Echinochloa oryzicola” value is 1 (Herbicidal effect of 10% inclusive to 20% exclusive) in assay [1] (dose 0.04 g ai/10 a), 3 (Herbicidal effect of 30% inclusive to 40% exclusive) in assay [1] (dose 0.08 g ai/10 a), 5 (Herbicidal effect of 50% inclusive to 60% exclusive) in assay [1] (dose 0.16 g ai/10 a) and 7 (Herbicidal effect of 70% inclusive to 80% exclusive) in assay [1] (dose 0.32 g ai/10 a). The “Herbicidal effect (degree of growth control) index, Monochoria vaginalis” value in assay [2] (dose 0.04 g ai/10 a) is given as 0 (Herbicidal effect of less than 10%); in assay [2] (dose 0.08 g ai/10 a) it was 0 (Herbicidal effect of less than 10%); in assay [2] (dose 0.16 g ai/10 a), 9 (Herbicidal effect of 90 inclusive to 100% exclusive); in assay [2] (dose 0.32 g ai/10 a) it was 10 (Herbicidal effect of 100% control). For the same compound, the “Herbicidal effect (degree of growth control) index, Scirpus juncoides” value is reported as 2 (Herbicidal effect of 20% inclusive to 30% exclusive) in assay [3] (dose 0.04 g ai/10 a), 8 (Herbicidal effect of 80% inclusive to 90% exclusive) in assay [3] (dose 0.08 g ai/10 a), 9 (Herbicidal effect of 90 inclusive to 100% exclusive) in assay [3] (dose 0.16 g ai/10 a) and 10 (Herbicidal effect of 100% control) in assay [3] (dose 0.32 g ai/10 a).

These data come from patent publication US20110178299A1, “OPTICALLY ACTIVE DIFLUOROMETHANESULFONANILIDE DERIVATIVE AND HERBICIDE” (Kumiai Chemical Industry Co., Ltd., priority 2008, published 2011).
